Test results from patent US20250100947A1, “NITROUS OXIDE INHIBITOR” (His Majesty the King in Right of New Zealand Acting Through …, priority 2021, published 2025).

Assays:
[1] = system: soil potential denitrification (DEA) enzyme activity; assay: Soil denitrification enzyme activity (DEA) short-term incubation; type: biochemical
Procedure: Short-term incubation studies were conducted to determine the effect of the compound of the invention on soil potential denitrification (DEA) enzyme activity. Details of each assay are described in Zhong et al. (2015, 2016).
The denitrification assay involved testing the effect of five ALBSO treatments: 0 (water only), carrier (formic acid only), low (0.011 μg ALBSO g^−1 dry soil), high (0.046 μg ALBSO g^−1 dry soil) and very high (0.91 μg ALBSO g^−1 dry soil) at a common N rate delivered as KNO3.
The ALBSO treatments were formulated with an absolute minimum amount of formic acid needed to just dissolve the required amount of ALBSO into solution. Identical amounts of formic acid were used to formulate the carrier, low, high and very high ALBSO treatments, with the carrier containing only formic acid and water. The pH of carrier, low, high and very high ALBSO treatment solutions was identical and mildly acidic.
After a 4-hour incubation period, N2O concentrations were lower (P<0.008) for incubation vessels that had been treated with ALBSO. […] Typically, results for this kind of incubation become unreliable after 6 hours, however, the 8 hour sampling in case the high level of N addition allowed for a longer period of microbial activity.
A further incubation was performed to test the effect of the carrier as well as the high rate of ALBSO on denitrification enzyme activity.
The final incubation included a treatment where acetylene was not added. The use of acetylene gives further information on whether the ALBSO effect on denitrification is due to effects on enzymes linked to nirK and nirS (with acetylene) or nosZ (without acetylene) genes. […] Letters refer to ALBSO effects within acetylene treatments (LSD 5.3, n=3).

[2] = system: NO3^− leaching from grazed pasture soil; assay: Field lysimeter study of nitrate leaching from cow urine; details: for % Reduction of leaching due to inhibitor: compared to the urine only treatment, P<0.05; for Total leaching: cow urine 600 kg N ha^−1, inhibitor applied within 1 hour, DCD at 10 kg ha^−1, urine alone 358
Procedure: A field lysimeter study was conducted to examine the effects of albendazole sulfoxide on NO3^− leaching resulting from cow urine applied to a grazed pasture (at a loading rate of about 600 kg N ha^−1). The field lysimeter experiment was a randomized complete block design with the following treatments: • Control (no urine and no inhibitor) • Urine alone (600 kg N ha^−1) • Urine plus DCD (DCD solution at 10 kg ha^−1) • Urine plus albendazole sulfoxide (supplied by AgResearch Palmerston North)
Urine was collected from dairy cows that had been grazing an established ryegrass-white clover pasture. The cow urine was bulked and held at 4° C. for a few days prior to application. The urine was applied in a single application at an N loading rate of 600 kg N ha^−1 and a hydraulic loading rate of 10 L m^−2 to simulate dairy cow urine deposition. […] The treatments were replicated 6 times.
These urine and inhibitor treatments were also simultaneously applied to associated 0.5 m^2 plots so that soil samples could be taken throughout the trial to monitor mineral N transformations and moisture levels.
Leachate volumes were measured from the lysimeters when drainage occurred over the drainage period (May-October). Subsamples of leachate were collected and frozen at −20° C. prior to analysis for nitrate N(NO3^−N) and ammonium N(NH4^+—N) using a Skalar SAN^++ segmented auto flow analyser (Skalar Analytical B.V., Breda, Netherlands).

[3] = system: N2O emissions from urine-treated pasture soil; assay: Field trial, static chamber N2O emissions from simulated cattle urine patches; details: for Net emitted: control subtracted
Excerpt: A trial site was fenced off and stock excluded for about 14 weeks, until the commencement of the field trials, to avoid interference from fresh dung and urine inputs and reduce spatial heterogeneity/variability from the previous uneven deposition of dung and urine.
Approximately two weeks before the commencement of the trial, pasture was mown to 50 mm height, 4 soil samples (to 100 mm depth) were collected for physicochemical characterisation and Field plots were established in a randomised complete block design with 5 treatments as shown in Table 1. Plot size was 2.5×2.5 m for all treatments with an additional buffer area of at least 0.5 m between adjacent plots.
Natural urine deposition was simulated with 2 L cattle urine (containing 8.35 g N L^−1) in large static chambers allowing for urine edge-effect. All solutions containing a N2O inhibitor were applied at the same rate (30 mL/Chambers; 600 L/ha). For all urine treatments, 2 L urine was poured to the central point of the chamber base area at a height of approximately 1.2 m and allowed to spread naturally. To mimic the “Spikey®” urine patch treatment, a spot-sprayer system (supplied by Pastoral Robotics Limited) was used for treating the urine patch in the large chambers. All the inhibitor compositions were applied to the relevant treatments within 4 h after urine application.
A static chamber technique was used to measure N2O emissions, and the methodology was based on that used in a previous published study on N2O emissions (Luo et al 2015). One week before the trial began, static chamber bases (80 cm diameter) were inserted into the soil. Herbage within the chamber base and the ring areas was cut to 50 mm above ground level before the application of the treatments.
Pre-treatment gas flux was taken from each chamber a day before the application of treatments to determine the spatial variability of background of N2O flux between the plots and to assist with interpretation of patterns of N2O flux from individual sampling plots post treatment application as a covariate for statistical analysis of post-treatment emissions.
Post treatment gas measurements were carried out at 2, 24 and 72 h after application of the urine and inhibitor compositions, twice a week for the first 8 weeks and thereafter weekly. The measurements were continued until the N2O flux values for treatment plots reached the background levels measured in the control plots. During weekly phases of N2O flux measurement, additional sampling occurred as soon as practical following rainfall events of greater than 10 mm of rain in the previous 24 h. On each sampling day, N2O measurements were carried out between 1000 and 1200 h. Gas samples from chamber headspace were taken during a cover period of 100 minutes at times t0, […] (or similar). Two background atmosphere samples were also taken on each sampling day at each site. […] The measurements of N2O emission from the treatment plots continued until the first week of September. During this period, 3 pasture harvests were taken, and herbage samples analysed for N content.
Nitrous oxide concentration of gas samples were analysed by gas chromatograph using a Shimadzu GC-17a gas chromatograph equipped with a 63Ni-electroncapture detector (oven, valve and detector temperatures were operated at 65, 100 and 280° C., respectively, using oxygen-free N as a carrier gas and connected to an automatic sampler capable of handling up to 120 samples, and a SRI 8610 automated gas chromatograph. Chamber temperatures were recorded at the beginning and end of the cover period and the average of the two readings were considered the chamber temperature for calculating gas flux. The increase in N2O concentration within the chamber headspace, for the gas samples collected at t0, t50 and t100 was generally linear (R2>0.90). Therefore, the hourly N2O fluxes will be calculated using linear regression and the ideal gas law according to Equation 1: […]

[4] = Urine + high concentration ALBSO (900 μg), UA1
[5] = Urine + low concentration ALBSO (266 μg), UA2

CCC[S+]([O-])c1ccc2[nH]c(NC(=O)OC)nc2c1 (stereo not drawn) [ALBSO, methyl [5-(propane-1-sulfinyl)-1H-benzoimidazol-2-yl]-carbamate]
ppm N2O after 4 h ([1]; High (0.046 μg ALBSO g^−1 dry soil), first incubation, n=3, H2O 138): 102 ppm N2O | ppm N2O after 8 h ([1]; High (0.046 μg ALBSO g^−1 dry soil), first incubation, H2O 236): 217 ppm N2O | N2O concentration after 4-hour incubation, acetylene not added ([1]; High ALBSO, final incubation, n=3, Acetylene No, H2O 97.3): 84.7a ppm N2O | N2O concentration after 4-hour incubation, acetylene added ([1]; High ALBSO, final incubation, n=3, Acetylene Yes, H2O 96.9): 90.9a ppm N2O | ppm N2O after 4 h ([1]; High rate of ALBSO, further incubation with carrier, n=4, H2O 97): 90 ppm N2O | ppm N2O after 8 h ([1]; High rate of ALBSO, further incubation with carrier, n=4, H2O 137): 131 ppm N2O | ppm N2O after 4 h ([1]; Low (0.011 μg ALBSO g^−1 dry soil), first incubation, n=3, H2O 138): 96 ppm N2O | ppm N2O after 8 h ([1]; Low (0.011 μg ALBSO g^−1 dry soil), first incubation, H2O 236): 233 ppm N2O | ppm N2O after 4 h ([1]; Very High (0.91 μg ALBSO g^−1 dry soil), first incubation, n=3, H2O 138): 86 ppm N2O | ppm N2O after 8 h ([1]; Very High (0.91 μg ALBSO g^−1 dry soil), first incubation, H2O 236): 232 ppm N2O | N2O concentrations after 4-hour incubation, treated vs untreated vessels ([1]; all ALBSO amounts, P<0.008, 28° C., anaerobic): lower | Effect on reducing N2O over both acetylene treatments ([1]; final incubation, P=0.005): significant effect of ALBSO on reducing N2O | % Reduction of leaching due to inhibitor [2]: 20% | Total leaching [2]: 289 kg NO3^−—N ha^−1 | Total emitted ([3]; Urine 2 L + high concentration ALBSO (900 μg in 0.054M formic acid), UA1, cumulative over 4 months): 3703 g N2O—N | Total emitted ([3]; Urine 2 L + low concentration ALBSO (266 μg in 0.054M formic acid), UA2, cumulative over 4 months): 3147 g N2O—N | EF3 (% of applied N emitted) [3, 4]: 0.84 % of applied N emitted | Net emitted [3, 4]: 2807 g N2O—N | EF3 (% of applied N emitted) [3, 5]: 0.68 % of applied N emitted | Net emitted [3, 5]: 2251 g N2O—N | Emissions from treated urine ([3]; urine treated with low concentration ALBSO composition): 3147 g N2O—N ha^−1

N#CN=C(N)N [DCD, dicyandiamide, reference compound]
% Reduction of leaching due to inhibitor [2]: 30% | Total leaching [2]: 253 kg NO3^−—N ha^−1 | Total emitted ([3]; Urine 2 L (16.70 g N) + DCD (0.25 g N), UDCD, cumulative over 4-month measurement period): 3142 g N2O—N | EF3 (% of applied N emitted) ([3]; Urine + DCD (0.25 g N), UDCD): 0.67 % of applied N emitted | Net emitted ([3]; Urine + DCD (0.25 g N), UDCD): 2246 g N2O—N | Emissions from treated urine ([3]; urine treated with DCD): 3142±300 g N2O—N ha^−1
